According to ChEMBL document CHEMBL5149986, “Spliceostatins and Derivatives: Chemical Syntheses and Biological Properties of Potent Splicing Inhibitors” (J Nat Prod, 2021):

Key:
HeLa = assay: Potency index, ratio of test compound IC50 to Spliceostatin A IC50 for inhibition of pre-mRNA splicing in human HeLa nuclear extract in presence of ATP
[1] = Inhibition of pre-mRNA splicing in human HeLa nuclear extract in presence of ATP; type: cell-free
MCF7 = assay: Cytotoxicity against human MCF7 cells incubated for 7 to 10 days by MTS assay; type: functional; details: time 7-10 day
[2] = Cytotoxicity against human Jurkat-TAg cells assessed as cell growth inhibition measured after 48 hrs; type: functional, cell-based
HCT-116 = assay: Cytotoxicity against human HCT-116 cells assessed as inhibition in cell growth; type: functional, cell-based
HCT-116/VM46 = assay: Cytotoxicity against human HCT116/VM46 cells assessed as inhibition in cell growth; type: functional, cell-based
L1210 = assay: Cytotoxicity against mouse L1210 cells assessed as inhibition in cell growth; type: functional, cell-based
[3] = Cytotoxicity against HEK293T cells assessed as inhibition in cell growth; type: toxicity, cell-based, HEK-293T; details: human
MES-SA = assay: Cytotoxicity against human MES-SA cells assessed as inhibition in cell growth; type: functional, cell-based
MES-SA/Dx5 = assay: Cytotoxicity against human MES-SA/Dx5 cells assessed as inhibition in cell growth; type: functional, cell-based

SMILES	IC50 [1]	IC50 [2]	IC50 (HCT-116)	IC50 (HCT-116/VM46)	IC50 (L1210)	further results
CC(=O)O[C@@H](C)/C=C\C(=O)N[C@@H]1C[C@H](C)[C@H](C/C=C(C)/C=C/[C@H]2OC3(CC3)C[C@@]3(CO3)[C@@H]2O)O[C@@H]1C	20 nM					Ratio IC50 (HeLa): 2
CC(=O)O[C@@H](C)/C=C\C(=O)N[C@@H]1C[C@H](C)[C@H](C/C=C(C)/C=C/[C@H]2O[C@](C)(O)C[C@@]3(CO3)[C@@H]2O)O[C@@H]1C	50 nM	2 nM				GI50 (MCF7): 1.1 nM
CC(/C=C/[C@H]1OC(C)(C)C[C@@]2(CO2)[C@@H]1O)=C\C[C@@H]1O[C@H](C)[C@H](NC(=O)/C=C\[C@H](C)OC(=O)N2CCOCC2)C[C@@H]1C			0.49 nM	0.55 nM	7.8 nM	
COC(=O)C[C@@H]1C[C@@]2(CO2)[C@H](O)[C@@H](/C=C/C(C)=C/C[C@@H]2O[C@H](C)[C@H](NC(=O)/C=C\[C@H](C)OC(C)=O)C[C@@H]2C)O1	400 nM					IC50 [3]: 0.36 nM; IC50 (MES-SA): 0.32 nM; IC50 (MES-SA/Dx5): 3.6 nM
CC(=O)O[C@@H](C)/C=C\C(=O)N[C@@H]1C[C@H](C)[C@H](C/C=C(C)/C=C/[C@H]2O[C@](C)(O)CC3(CC3)[C@@H]2O)O[C@@H]1C		> 4000 nM				
CC(/C=C/[C@H]1OC(C)(C)C[C@@]2(CO2)[C@@H]1O)=C\C[C@@H]1O[C@H](C)[C@H](NC(=O)/C=C\[C@H](C)OC(=O)N2CCSCC2)C[C@@H]1C			0.48 nM	0.52 nM	0.51 nM	
CC(/C=C/[C@H]1OC(C)(C)C[C@@]2(CO2)[C@@H]1O)=C\C[C@@H]1O[C@H](C)[C@H](NC(=O)/C=C\[C@H](C)O)C[C@@H]1C			9.7 nM	7.4 nM	0.54 nM	
CC(/C=C/[C@H]1OC(C)(C)C[C@@]2(CO2)[C@@H]1O)=C\C[C@@H]1O[C@H](C)[C@H](NC(=O)/C=C\[C@H](C)OC(=O)N2CCCCC2)C[C@@H]1C			0.68 nM	0.59 nM	0.6 nM	
CC(=O)O[C@@H](C)/C=C\C(=O)N[C@@H]1C[C@H](C)[C@H](C/C=C(C)/C=C/[C@H]2O[C@@H](C)C[C@@]3(CO3)[C@@H]2O)O[C@@H]1C		1.6 nM				
CO[C@]1(C)C[C@]2(CO2)[C@@H](O)[C@@H](/C=C/C(C)=C/C[C@@H]2O[C@H](C)[C@H](NC(=O)/C=C\[C@H](C)OC(C)=O)C[C@@H]2C)O1	1500 nM					
CC(=O)N[C@@H]1C[C@H](C)[C@H](C/C=C(C)/C=C/[C@H]2O[C@](C)(O)C[C@@]3(CO3)[C@@H]2O)O[C@@H]1C		1700 nM				
CC(=O)O[C@@H](C)/C=C\C(=O)N[C@@H]1C[C@H](C)[C@H](C/C=C(C)/C=C/[C@H]2OC(C)(C)C[C@@]3(CO3)[C@@H]2O)O[C@@H]1C			0.56 nM	0.51 nM	0.44 nM	GI50 (MCF7): 0.0102 nM
